pIC50: −log10 of the molar value.
How the values were obtained:
LOUCY = assay: cells; type: functional, cell-based, Homo sapiens; settings: Homo sapiens, LOUCY;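 note: growth inhibition of human LOUCY cells, read out with a cell viability assay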
Description: SANGER: Inhibition of human LOUCY cell growth in a cell viability assay.

MONO-MAC-6 = assay: cells; type: functional, cell-based, Homo sapiens; settings: Homo sapiens, MONO-MAC-6;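 note: cell viability assay measuring growth inhibition of human MONO-MAC-6 cells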
Description: SANGER: Inhibition of human MONO-MAC-6 cell growth in a cell viability assay.

NCI-H1882 = assay: cells; type: functional, cell-based, Homo sapiens; settings: Homo sapiens, NCI-H1882;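 note: growth inhibition of the cell line, determined with a viability assay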
Description: SANGER: Inhibition of human NCI-H1882 cell growth in a cell viability assay.

NCI-H2171 = assay: cells; type: functional, cell-based, Homo sapiens; settings: Homo sapiens, NCI-H2171;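 note: growth inhibition of human NCI-H2171 cells, read out by a cell viability assay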
Description: SANGER: Inhibition of human NCI-H2171 cell growth in a cell viability assay.

NCI-H2196 = assay: cells; type: functional, cell-based, Homo sapiens; settings: Homo sapiens, NCI-H2196;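 note: cell viability assay used as the readout of growth inhibition in NCI-H2196 cells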
Description: SANGER: Inhibition of human NCI-H2196 cell growth in a cell viability assay.

NCI-H748 = assay: cells; type: functional, cell-based, Homo sapiens; settings: Homo sapiens, NCI-H748;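 note: growth inhibition of NCI-H748 cells, measured by a cell viability assay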
Description: SANGER: Inhibition of human NCI-H748 cell growth in a cell viability assay.

OPM-2 = assay: cells; type: functional, cell-based, Homo sapiens; settings: Homo sapiens, OPM-2;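 note: growth of OPM-2 cells measured with a viability assay, IC50 for suppression of proliferation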
Description: SANGER: Inhibition of human OPM-2 cell growth in a cell viability assay.

RL = assay: cells; type: functional, cell-based, Homo sapiens; settings: Homo sapiens, RL
Description: SANGER: Inhibition of human RL cell growth in a cell viability assay.

Raji = assay: cells; type: functional, cell-based, Homo sapiens; settings: Homo sapiens, Raji;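 note: cell viability assay measuring inhibition of Raji cell growth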
Description: SANGER: Inhibition of human Raji cell growth in a cell viability assay.

ST486 = assay: SANGER: Inhibition of human ST486 cell growth in a cell viability assay.; type: functional, cell-based; settings: Homo sapiens, ST486
SUP-T1 = assay: cells; type: functional, cell-based, Homo sapiens; settings: Homo sapiens, SUP-T1;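 note: growth inhibition of human SUP-T1 cells, read out as cell viability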
Description: SANGER: Inhibition of human SUP-T1 cell growth in a cell viability assay.

BC-3 = assay: cells; type: functional, cell-based, Homo sapiens; settings: Homo sapiens, BC-3;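 note: cell viability assay measuring growth inhibition of human BC-3 cells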
Description: SANGER: Inhibition of human BC-3 cell growth in a cell viability assay.

BL-41 = assay: cells; type: functional, cell-based, Homo sapiens; settings: Homo sapiens, BL-41;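 note: growth inhibition of human BL-41 cells, read out with a cell viability assay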
Description: SANGER: Inhibition of human BL-41 cell growth in a cell viability assay.

Row | Structure (SMILES) | pIC50 (LOUCY) | pIC50 (MONO-MAC-6) | pIC50 (NCI-H1882) | pIC50 (NCI-H2171) | pIC50 (NCI-H2196) | pIC50 (NCI-H748) | pIC50 (OPM-2) | pIC50 (RL) | pIC50 (Raji) | pIC50 (ST486) | pIC50 (SUP-T1) | pIC50 (BC-3) | pIC50 (BL-41)
1 | COc1cc2ncn(-c3cc(OCc4ccccc4S(C)(=O)=O)c(C#N)s3)c2cc1OC [GSK-319347A] | < 5.30 | < 5.30 | < 5.30 | < 5.30 | < 5.30 | < 5.30 | < 5.30 | < 5.30 | < 5.30 | < 5.30 | < 5.30 | < 5.30 | < 5.30
2 | COc1cc2ncn(-c3cc(OCc4ccccc4C(F)(F)F)c(C(N)=O)s3)c2cc1OC [GW843682X] | 7.80 | 7.46 | 7.36 | < 6.59 | < 6.59 | < 6.59 | 7.35 | < 6.59 | < 6.59 | 7.69 | < 6.59 | < 6.59 | 7.96
3 | CC(=O)O[C@H]1C(=O)[C@@]2(C)[C@H]([C@H](OC(=O)c3ccccc3)[C@]3(O)C[C@H](OC(=O)[C@H](O)[C@@H](NC(=O)c4ccccc4)c4ccccc4)C(C)=C1C3(C)C)[C@]1(OC(C)=O)CO[C@@H]1C[C@@H]2O [PACLITAXEL] | 8.11 | 7.52 | 7.19 | < 6.99 | < 6.99 | < 6.99 | 7.44 | < 6.99 | < 6.99 | 7.92 | < 6.99 | 7.63 | 8.03
4 | N[C@@H](CSC(c1ccccc1)(c1ccccc1)c1ccccc1)C(=O)O [S-TRITYL-L-CYSTEINE] | 6.32 | 5.94 | 5.68 | < 5.29 | < 5.29 | < 5.29 | 5.48 | < 5.29 | 5.44 | 5.68 | < 5.29 | 5.66 | 5.78
5 | CC[C@H](CO)Nc1nc(NCc2ccccc2)c2ncn(C(C)C)c2n1 [SELICICLIB] | < 4.80 | < 4.80 | < 4.80 | < 4.80 | < 4.80 | < 4.80 | < 4.80 | < 4.80 | 4.86 | 4.99 | < 4.80 | < 4.80 | < 4.80
6 | CCN(CC)CCNC(=O)c1c(C)[nH]c(/C=C2\C(=O)Nc3ccc(F)cc32)c1C [SUNITINIB] | < 5.10 | 7.47 | < 5.10 | < 5.10 | < 5.10 | < 5.10 | 5.51 | < 5.10 | < 5.10 | 5.20 | < 5.10 | < 5.10 | 5.54

Source: ChEMBL document CHEMBL1201861, “Genomics of Drug Sensitity in Cancer screening data, Wellcome Trust Sanger Institute”
